Measured values as given in paper PMC12467740, “Synthesis, Characterization, and Screening Anticancer—Antibiofilm Activities of Theophylline Derivatives Containing CF3/OCF3 Moiety” (Biology, 2025).

Assays:
A549 cells = experiment: MTT cell viability assay, A549; type: cell-based, human; details: for IC50: MTT, 48 h, mean ± SD (n = 3); for SI (A549): ratio of IC50 in BEAS-2B cells to IC50 in A549 cells
Protocol: (§1) The anticancer potential of substituted theophylline derivatives was investigated using human lung carcinoma (A549, CCL-185) and cervical cancer (HeLa, CCL-2) cell lines obtained from the American Type Culture Collection (ATCC). To evaluate the selectivity of the tested compounds, cytotoxicity was also assessed in a healthy human bronchial epithelial cell line (BEAS-2B, ATCC CRL-9609). Cells were maintained in DMEM (Euroclone S.p.A., Pero, Italy supplemented with 10% fetal bovine serum (Sigma-Aldrich, St. Louis, MO, USA) and 1% penicillin–streptomycin (1%, Capricorn Scientific GmbH, Ebsdorfergrund, Germany at 37 °C in a humidified atmosphere containing 5% CO2. The theophylline-derived compounds (1a–1e) were dissolved in DMSO to prepare 100 mM stock solutions, which were then diluted with DMEM to obtain final working concentrations ranging from 3.125 µM to 100 µM. To evaluate cell viability, the MTT colorimetric assay was employed. Upon reaching logarithmic growth, A549, HeLa and BEAS-2B cells were seeded at a density of 7000 cells per well in 96-well microplates and allowed to attach for 24 h. Following this, cells were treated with different concentrations of the compounds and incubated for 48 h. After treatment, 100 µL of fresh medium and 20 µL of MTT reagent (5 mg/mL, Bio Basic Inc., Markham, ON, Canada) were added to each well, and cells were incubated for an additional 3 h. The resulting formazan crystals were solubilized with DMSO. Cell viability was calculated as the percentage of absorbance relative to untreated controls, and IC50 values were determined by nonlinear regression analysis using GraphPad Prism software, version 8.0 (GraphPad Software, San Diego, CA, USA. All experiments were performed in at least three independent replicates, and results are reported as mean ± SD. The percentage of inhibition was calculated based on the reduction in metabolic activity of the cells following compound treatment, as assessed by the MTT assay. The absorbance was measured at 570 nm using a microplate reader. The inhibition (%) was calculated using the following formula:Inhibition %=[1 − (Asample − Ablank)/[…]] × 100 To assess the tumor selectivity of the tested theophylline derivatives, the selectivity index (SI) was calculated for each compound. SI is defined as the ratio of the IC50 value in healthy (non-tumorigenic) cells to the IC50 value in cancer cells. In this study, IC50 values were determined for BEAS-2B (non-tumorigenic human bronchial epithelial cells) as a healthy control and for A549 (lung adenocarcinoma) and HeLa (cervical carcinoma) as tumor models. The SI was calculated according to the following equation:SI = [IC50, healthy/IC50, cancer]

HeLa cells = experiment: MTT cell viability assay, HeLa; type: cell-based, human; details: for IC50: 48 h, MTT, mean ± SD (n = 3); for SI (HeLa): ratio of IC50 in BEAS-2B cells to IC50 in HeLa cells
Protocol: as §1

Escherichia coli = experiment: Well plate biofilm formation assay (crystal violet); type: cell-based; details: over the concentration range given per compound (Table 4)
Protocol: (§2) The well plate assay was utilized to test the effectiveness of compounds in inhibiting biofilms made by microorganisms. An amount of 100 μL of Brucella broth (Remel, Lenexa, KS, USA) containing 1% and 20% glucose (Biolife, Milan, Italy), were dispensed into the test wells. In the next step, 100 μL of compounds ranging from 0.244 to 1000 μg/mL were poured into the wells. […] Then, 0.5 McFarland standard in physiological saline from each microorganism strain were prepared and 20 μL of the prepared suspension was added to the wells. A column of the microplate containing 100 μL Brucella broth served as a negative control and another column of the microplate containing 100 μL Brucella with 20 μL of each microorganism added served as a growth control. As positive controls, ciprofloxacin was applied against bacterial strains at a concentration range of 0.03125-64 μg/mL, and fluconazole was used against Candida albicans at a concentration range of 0.3125-640 μg/mL. Plates were left to incubate at 36.5 °C for a day. The plates were emptied and then washed three times with 300 μL of deionized water. The wells were left to dry for half an hour. The next step was staining with 0.1% (w/v) violet dye ([…]), cleaning three times with deionized water, and drying at room temperature. The crystal violet adhering to the wall of the wells was dissolved with 95% ethanol, and the optical density was measured at 570 nm. The test was run two times, and the mean value was calculated. Biofilm preventing (%) = {(ODb - ODc)/ODb} × 100.

Pseudomonas aeruginosa = experiment: as above; type: cell-based; details: over the concentration range given per compound (Table 4)
Protocol: as §2

Staphylococcus aureus = experiment: as above; type: cell-based; details: over the concentration range given per compound (Table 4); 1c and 1e at 1000 µg/mL
Protocol: as §2

BEAS-2B cells = experiment: MTT cell viability assay, BEAS-2B; type: cell-based; details: Homo sapiens, 48 h, mean ± SD (n = 3)
Protocol: as §1

Candida albicans = experiment: Well plate biofilm formation assay (crystal violet); type: cell-based; details: over the concentration range given per compound (Table 4)
Protocol: as §2

Enterococcus faecalis = experiment: as above; type: cell-based; details: over the concentration range given per compound (Table 4)
Protocol: as §2

SMILES | IC50 (A549 cells; Homo sapiens, A549, 48 h) [µM] | IC50 (A549 cells) [µM] | SI (A549) (A549 cells) | IC50 (HeLa cells; Homo sapiens, HeLa) [µM] | IC50 (HeLa cells) [µM] | SI (HeLa) (HeLa cells) | Antibiofilm activity Escherichia coli (Escherichia coli) | Antibiofilm activity Pseudomonas aeruginosa (Pseudomonas aeruginosa) | Antibiofilm activity Staphylococcus aureus (Staphylococcus aureus) | IC50 (BEAS-2B cells) [µM] | Antibiofilm activity Candida albicans (Candida albicans) | Antibiofilm activity Enterococcus faecalis (Enterococcus faecalis)
Cn1c(=O)c2c(ncn2Cc2cccc(C(F)(F)F)c2)n(C)c1=O [Compound 1b, 1,3-Dimethyl-7-(3-(trifluoromethyl)benzyl)-3,7-dihydro-1H-purine-2,6-dione] | 12.4 ± 0.7 | 13.6 ± 0.9 | 8.82 ± 0.20 | 10.8 ± 0.8 | 14.7 ± 0.7 | 8.16 ± 0.16 | did not show antibiofilm activity and – | did not show antibiofilm activity and – | did not show antibiofilm activity and – | 120 ± 3 | 0.8–23.9% | 5.7–23.1%
Cn1c(=O)c2c(ncn2Cc2cc(C(F)(F)F)cc(C(F)(F)F)c2)n(C)c1=O [Compound 1d, 1,3-Dimethyl-7-(3,5-bis(trifluoromethyl)benzyl)-3,7-dihydro-1H-purine-2,6-dione] | 29.1 ± 0.5 | 31.4 ± 1 | 4.78 ± 0.14 | 32.4 ± 0.85 | 34.5 ± 1 | 4.35 ± 0.13 | did not show antibiofilm activity and – | did not show antibiofilm activity and – | did not show antibiofilm activity and – | 150 ± 4 | 1.8–11.8% | 0.7–23.9%
Cn1c(=O)c2c(ncn2Cc2ccc(C(F)(F)F)cc2)n(C)c1=O [Compound 1c, 1,3-Dimethyl-7-(4-(trifluoromethyl)benzyl)-3,7-dihydro-1H-purine-2,6-dione] | 13.6 ± 0.9 | 15.7 ± 0.6 | 5.73 ± 0.15 | 14.7 ± 0.7 | 11.5 ± 1.2 | 7.83 ± 0.22 | did not show antibiofilm activity and – | did not show antibiofilm activity and – | 20.1% | 90 ± 3 | 0.9–12.3% | 0.7–16.0%
Cn1c(=O)c2c(ncn2Cc2ccc(OC(F)(F)F)cc2)n(C)c1=O [Compound 1e, 1,3-Dimethyl-7-(4-(trifluoromethoxy)benzyl)-3,7-dihydro-1H-purine-2,6-dione] | 31.4 ± 1 | 29.1 ± 0.5 | 4.81 ± 0.09 | 34.5 ± 1.25 | 32.4 ± 0.8 | 4.32 ± 0.11 | did not show antibiofilm activity and – | did not show antibiofilm activity and – | 13.6% | 140 ± 3 | 0.4–23.4% | 5.1–13.9%
